Among the data in ChEMBL document CHEMBL1122692, “Catechol derivatives of 6-aminobenzocycloheptene: assessment of dopaminergic effects” (1984) are Pressure values, retold here.

What all share (type): functional
In assay [1] the test system is Felis catus. Briefly: Compound was evaluated for the biological activity (pressure) in anesthetized cats at a dose of 40 ug/kg.
Assay [2] relates to Felis catus. Briefly: Compound was evaluated for the biological activity (pressure) in anesthetized cats at a dose of 20 ug/kg.
Assay [3] concerns Felis catus. Briefly: Compound was evaluated for the biological activity (pressure) in anesthetized cats at a dose of 10 ug/kg.

Molecules are shown by their SMILES.

Consider `NC1CCCc2c(ccc(O)c2O)C1` (stereo not drawn), for which the Pressure in assay [1] stood at 70 mmHg; in assay [2], 38 mmHg; in assay [3] it was 15 mmHg.
